Measurements published in US20250020635A1, “ASSAY METHODS AND USES THEREOF FOR SCREENING ALZHEIMER'S DISEASE TREATMENT COMPOUNDS” (priority 2023, published 2025).
Where two headings read alike, the source gives them in different places.

How the values were obtained:
[1] = biological target: T1, PLCγ2 enzyme (Homo sapiens, UniProt P16885); assay: Liposomal biochemical assay with fluorogenic probe XY-69; settings: for increase in PLCγ2 activity (change in slope relative to control): dose response, liposomes with XY-69
T1 sequence (P16885 1-1265): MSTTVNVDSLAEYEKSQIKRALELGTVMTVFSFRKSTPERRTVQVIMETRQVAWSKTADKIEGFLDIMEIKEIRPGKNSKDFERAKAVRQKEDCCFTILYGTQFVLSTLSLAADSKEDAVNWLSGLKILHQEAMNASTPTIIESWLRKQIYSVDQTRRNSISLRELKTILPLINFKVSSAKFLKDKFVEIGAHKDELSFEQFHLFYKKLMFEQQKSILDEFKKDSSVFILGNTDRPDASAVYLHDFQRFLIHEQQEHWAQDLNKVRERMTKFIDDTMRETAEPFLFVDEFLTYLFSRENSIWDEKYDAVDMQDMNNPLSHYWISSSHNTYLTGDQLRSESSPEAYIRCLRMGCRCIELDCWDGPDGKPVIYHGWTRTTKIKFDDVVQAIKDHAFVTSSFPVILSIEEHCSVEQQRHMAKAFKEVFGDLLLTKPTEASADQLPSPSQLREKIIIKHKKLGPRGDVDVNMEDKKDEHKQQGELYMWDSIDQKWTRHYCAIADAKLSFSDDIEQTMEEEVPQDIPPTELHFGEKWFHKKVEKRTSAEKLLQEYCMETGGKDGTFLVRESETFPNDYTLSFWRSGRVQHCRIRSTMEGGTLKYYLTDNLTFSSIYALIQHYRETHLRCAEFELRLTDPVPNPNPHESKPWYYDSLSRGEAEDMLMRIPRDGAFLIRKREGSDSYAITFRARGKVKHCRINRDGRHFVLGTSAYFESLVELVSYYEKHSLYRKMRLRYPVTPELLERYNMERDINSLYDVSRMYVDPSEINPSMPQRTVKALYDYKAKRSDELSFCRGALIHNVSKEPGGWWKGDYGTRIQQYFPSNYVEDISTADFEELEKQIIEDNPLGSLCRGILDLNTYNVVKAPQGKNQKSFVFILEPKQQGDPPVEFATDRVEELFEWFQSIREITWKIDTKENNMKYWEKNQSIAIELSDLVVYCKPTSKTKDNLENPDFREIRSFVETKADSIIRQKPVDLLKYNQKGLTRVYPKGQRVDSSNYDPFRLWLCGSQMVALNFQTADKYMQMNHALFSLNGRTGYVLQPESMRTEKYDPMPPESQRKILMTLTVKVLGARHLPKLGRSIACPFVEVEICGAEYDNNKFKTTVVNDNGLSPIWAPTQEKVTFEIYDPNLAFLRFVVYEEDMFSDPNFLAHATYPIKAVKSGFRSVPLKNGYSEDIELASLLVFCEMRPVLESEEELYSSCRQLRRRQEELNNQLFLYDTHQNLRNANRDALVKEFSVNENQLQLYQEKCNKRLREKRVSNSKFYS
Text: Sondek and coworkers have described an assay for PLCγ1 activity in the presence of liposomes as a model for activity at the cell membrane where the natural ligand is located.^36 The assay was redeveloped and reoptimized for PLCγ2 at the Purdue Institute for Drug Discovery. Liposomes containing XY-69 (purchased from Avanti Polar Lipids, cat. #850168) were generated using phosphatidylinositol 4,5-bisphosphate (PIP2) and 1-stearoyl-2-arachidonoyl-sn-glycero-3-phosphatidylethanolamine (lipidPE). The PLCγ2 enzyme was exposed to this solution and, after treatment with the compounds of interest, the fluorescence intensity (ex: 485 nm; em: 520 nm) was recorded every 2 min for 120 min (FIG. 19). The slope of the linear portion of the curves (up to 50 min) was compared to control giving a relative rate of reaction. Dose dependent curves of a representative sample of the compounds tested are shown (FIG. 20A-20B).

[2] = biological target: T2, PLCγ2-HiBit (Homo sapiens, UniProt P16885); assay: Cellular thermal shift assay (SplitLuc CETSA), PLCγ2-HiBit in HMC3 cells; assay type: cell-based; settings: for PLCγ2-HiBit %, percent luminescence at highest dose compared to control (DMSO): 100 μM
T2 construct: expressed in transfected cells; host or cells: HMC3 cells
T2 sequence (P16885 1-1265): T1 sequence (P16885 1-1265)
Text: These compounds have been evaluated using a wide variety of assay classes namely target engagement utilizing cellular thermal shift assay (CETSA),^34 affinity selection mass spectrometry (ASMS),^35 biochemical activity employing the fluorogenic probe XY-69,^36 and cellular activity testing for phagocytosis. Cellular Thermal Shift Assays (CETSA) assess cellular target engagement by quantifying changes in protein thermal stability upon ligand binding to endogenous proteins in intact cells.^34 For SAR studies, a split Nano Luciferase (SplitLuc CETSA) version of the assay was utilized to provide sufficient throughput.^37,38 HMC3 cells were stably transfected with PLCγ2-HiBit to enable protein expression in a physiologically relevant cellular context. The thermal stability of this HiBit-labeled protein in intact cells was measured in the following two formats. In the initial screen, using 96-well plates, cells were treated with FBS analogs at a single concentration (100 μM) at 37° C. for 60 min and then exposed to a 3-minute isothermal heating step at 45.9° C. (experimentally determined Tm of PLCγ2-HiBit). Luminescence detection was then conducted with the Nano-Glo HiBit Lytic detection kit (Promega, Cat. N3040).^38 Compound treatment was performed in triplicate, and raw signals were normalized to the mean of the controls (in the same plate) as % of control. When the difference in compound-treated cells >control mean+3SD, the compound was considered positive and selected for further testing with dose-response CETSA. In the dose response CETSA, cells were treated with decreasing concentrations from 100 μM with 1:3 serial dilutions to generate an 8-point curve. An AC50 was calculated with the % of control data using a four-parameter logistic curve regression model, and the percent luminescence remaining at the highest concentration is also reported for the compounds when the difference from the DMSO control is greater than 3× the standard deviation (SD). Otherwise, an AC50 was not calculated.

Row | SMILES | increase in PLCγ2 activity (change in slope relative to control) [1] | increase in PLCγ2 activity (change in slope relative to control) ([1]; listed as m-3M3FBS) | PLCγ2-HiBit %, percent luminescence at highest dose compared to control (DMSO) [2] [%] | PLCy2-HiBit % @100 ([2]; Table 1) [%] | AC50 ([2]; Table 1, CETSA dose response, read-out: AC50) [µM] | AC50 ([2]; Table 5, 8-point dose response from 100 μM, HMC3 cells, 45.9° C., read-out: AC50, concentration that induced a half-maximum loss of luminesce compared to control) [µM] | enzymatic activation, single dose ([1]; 100 μM)
1 | Cc1cc(C)c(S(=O)(=O)Nc2cccc(C(F)(F)F)c2)c(C)c1 [Compound 1, 2,4,6-trimethyl-N-(meta-3-trifluoromethyl-phenyl)-benzenesulfonamide, reference compound] | among the highest increases of all analogs tested | highest increase in response | 105 | 105 | – | – | –
2 | Cc1cc(C)c(S(=O)(=O)Nc2ccccc2C(F)(F)F)c(C)c1 [Compound 2, o-3M3FBS, reference compound] | much lower, though it still showed a statistically significant increase in activation | – | 102 | 102 | – | – | –
3 | O=S(=O)(Nc1ccc(Br)cc1F)c1cccs1 [Compound 8] | – | – | 66 | 66 | > 100 | > 100 | –
4 | Cc1cc(C)c(S(=O)(=O)NC2CCCNC2)c(C)c1 (stereo not shown) [Compound 11] | – | – | 64 | – | – | – | no enzymatic activation
